The text below walks through data of US20030133874A1, “Analytical method to evaluate animal models of neurofibrillary degeneration” (priority 2002, published 2003).

The subject of data set [1] is tau. Briefly: Tau hyperphosphorylation in vivo after intracerebral injection into nucleus basalis, immunoblot. The note with it: rat nucleus basalis. As for the experimental part: a) Analysis with mAbs Tau-1 and AT8. […] Brains were surgically removed, the nucleus basalis dissected and homogenized in ice-cold stop buffer after 30 to 360 min. Heatstable supernatants were immunoblotted with Tau-1, AT8, and Tau-1 after dephosphorylation on the blot for normalization purposes.
b) Relevant areas of immunoblots developed with ECL were scanned densitometrically and AT8 signals normalized to Tau-1 signals of phosphatase-treated blots. Results represent triplicate experiments, P values were determined by ANOVA.
c) Aliquots of extracts of vehicle and okadaic acid injected nuclei basali were immunoblotted with mAb AP422.
Male or female Long-Evans rats at approximately 3 to 4 months of age were housed in pairs with food and water available ad libidum. […] The tissue was held out of the operating field with forceps and the areas of injection were marked. Openings were made through the skull using a dentists drill and a number 5 carbide bur. […]
Heat-stable supernatants of triplicate experiments were analyzed by immunoblotting with AT8 (FIG. 5a) and AP422 (FIG. 5c). AT8 signals were quantitated after normalization to Tau-1 immunoreactivity on phosphatase-treated blots as described in example 3. […]
Background: A western blot detects proteins with antibodies after separation by electrophoresis.

Data set [2] has as its system tau. Put plainly: Induction of tau hyperphosphorylation in rat hippocampal brain slices, immunoblot. The class given is cell-based. The method, then:
Freshly prepared hippocampal brain slices from adult Long-Evans rats were incubated under oxygenation in a physiological buffer for 1 hr with increasing concentrations of okadaic acid. Slices were homogenized in an ice-cold stop buffer by brief ultrasonication, and supernatants were boiled and analyzed for heatstable tau proteins by immunoblotting with reference mAbs Tau-1, AT8, and PHF-1 (FIG. 4a), and AP422 (FIG. 4b).
Adult male Long-Evans rats were anesthesized with CO2 and decapitated. Brains were removed within 2 min and the hippocampus was dissected using a blunt spatula. Hippocampi were cut into […] slices using a Mcllwain tissue chopper and placed into ice-cold low Ca^2+ Krebs-Bicarbonate buffer (pH 7.0): 124 mM NaCl, 3.33 mM KCl, 0.01 mM Ca^2+, 1.25 mM KH2P04, 1.33 mM MgS04, 25.7 mM NaHCO3, 10 mM D-Glucose, 20 mM HEPES. 5-8 slices were placed into a tube with 5 ml of low Ca^2+ buffer and incubated for at least 30 min at 33-34° C. with water saturated oxygenation (95% O2, 5% CO2.). After 30 min the solution was replaced with a buffer containing a physiological level of Ca^2+ (1.3 mM) and incubated for an additional 30 min. […] Aliquots of heat-stable supernatants, normalized for protein content, were analyzed on 10% SDS-PAGE, followed by immunoblotting with mAbs AT8 (1:200) and AP422 (1:5,000). […]

The test system of data set [3] is tau. Put plainly: Tau phosphorylation in rat brain after prolonged pentobarbital anesthesia, immunoblot of heat-stable extracts. To be noted: rats, five hours after 65 mg/kg.
Text: The animals at 5 hrs after the first anesthesia had to be anethesized a second time, as they had regained full consciousness. […] Recovered brains were homogenized and supernatants processed for immunoblotting with AT8 and Tau-1 as before. To normalize signal intensity with phosphorylation-dependent mAbs to total amount of tau protein present in each extract (specific labelling) sister blots with a five-fold reduced load of extract protein were subjected to exhaustive dephosphorylation with calf intestinal alkaline phosphatase prior to staining with Tau-1. Blots were developed by ECL and relevant areas of the blots were scanned densitometrically. […]
A second dose of anesthetic was administered immediately prior to brain removal when excision occurred two hours or more after the first anesthesia. Cortices were processed and tau proteins analyzed by Western-blotting as in Example 2, using mAbs Tau-1 and AT8. To allow quantitative immunochemical evaluation of tau phosphorylation sister blots of all samples with a five-fold lower protein load were subjected to exhaustive dephosphorylation to provide a relative measure for total load of tau protein using Tau-1 staining. […] Signals were captured on KODAK X-OMAT scientific imaging film and quantitated by densitometric scanning and image analysis with NIH image 1.44. […]

Molecules are shown by their SMILES.

On to `C=C1[C@@H](O)[C@@H]2O[C@]3(CC[C@H](/C=C/[C@@H](C)[C@@H]4CC(C)=C[C@@]5(O[C@H](C[C@@](C)(O)C(=O)O)CC[C@H]5O)O4)O3)CC[C@H]2O[C@@H]1[C@@H](O)C[C@H](C)[C@H]1O[C@@]2(CCCCO2)CC[C@H]1C` [okadaic acid], for which the “specific effect on normalized AT8 signal” value in the data set with tau [1] (30 to 360 min after injection) is listed as “impossible to discern”. Also, the “in vivo tau hyperphosphorylation detected with AP422” value with tau [1] (individual animals) is listed as “does not always occur”. The “tau hyperphosphorylation detected with AT8” value in the data set on tau [2] (freshly prepared rat brain slices) is “tau hyperphosphorylation induced”. For the same molecule, the “AP422 reactivity of tau” value in the data set on tau [2] (rat hippocampal brain slices, increasing concentrations) was “induced”.
Turning to `CCCC(C)C1(CC)C(=O)NC(=O)NC1=O` (centres unmarked) [pentobarbital], in the data set with tau [3], the “autonomous signs after regaining consciousness” value was “no abnormal autonomous signs”.
